From patent publication US20170296540A1, “METHODS OF TREATING FRIEDREICH'S ATAXIA USING SRC INHIBITORS” (Fratagene Therapeutics S.R.L., priority 2014, published 2017)
“Also recorded” adds a separate entry of the source. Read-outs that look alike come from different tables or passages of the source.

Tests used:
[1] = system: HEK293^FXN cells stably expressing a single copy of wild-type frataxin; assay: Frataxin precursor accumulation with Src inhibitor, ubiquitin competing molecule or combination in HEK293^FXN cells; conditions: F166 1 uM; 24 h
Protocol: Data are representative of four independent experiments. […] The frataxin expression was normalized with tubulin, and frataxin expression in non-treated cells (−) was set to 1. Data represent the mean±1 S.E.M. from four independent experiments.
The frataxin precursor (FXN) and tubulin expression (TUB) were analyzed by western blot (FIG. 7A). The data shown are representative of four independent experiments.
The amount of frataxin accumulation was quantified by densitometry (FIG. 7B). Frataxin expression was normalized with tubulin, and frataxin expression in non-treated cells (−) was set to 1. The data shown represent the mean±1 S.E.M. from four independent experiments.

[2] = system: HEK293^FXN cells stably expressing non-phosphorylable Y118F frataxin mutant; assay: Frataxin accumulation (western blot, densitometry) in HEK293^FXN cells expressing Y118F frataxin mutant; assay type: cell-based, human; conditions: 1, 3 and 10 μM, 24 h
Protocol: (§1) FIG. 4. […] HEK293^FXN cells stably expressing single copy of wild type frataxin (WT) or non-phosphorylable Y118F frataxin mutant (Y118F) were treated for 24 h with 1, 3, and 10 μM of either Src inhibitor SU6656, PP2, dasatinib, bosutinib, saracatinib, or vehicle (−). […] Data are representative of three independent experiments. The precursor (P), intermediate (I) and mature (M) frataxin forms are indicated. Right panels: Densitometric quantification of frataxin accumulation for the corresponding inhibitor.
(§2) HEK-293 Flp-In cells (Life Technologies) are HEK-293 variants allowing the stable and isogenic integration and expression of a transfected gene. The HEK-293 clone stably expressing frataxin^1-210 (Condo et al. 2007) and the clone stably expressing frataxin^V118F were generated by mutagenesis as described below. HEK-293 Flp-In cells were maintained in DMEM supplemented with 10% FBS.
(§3) Densitometric analyses were performed using ImageLab software (Biorad).
(§4) Because phosphorylation on Y118 promotes ubiquitination and that preventing ubiquitin-dependent degradation increases frataxin levels (Rufini et al. 2011), the effects of frataxin phosphorylation by Src kinase were tested for enhancement of frataxin expression.

[3] = system: HEK293^FXN cells stably expressing single copy of wild type frataxin; assay: Frataxin accumulation (western blot, densitometry) in HEK293^FXN cells expressing wild type frataxin; assay type: cell-based, human; conditions: 1, 3 and 10 μM, 24 h
Protocol: as §1, §2, §3, §4

[4] = system: endogenous frataxin in HEK293 cells; assay: Endogenous frataxin accumulation in HEK293 cells (western blot, densitometry); assay type: cell-based, human; conditions: 1, 3 and 10 μM, 24 h
Protocol: Human HEK293 cells were treated with 1, 3 and 10 μM of SU6656, PP2, and dasatinib Src inhibitor or vehicle (−) for 24 h. Frataxin (FXN) and tubulin expression (TUB) was analyzed by western blot. Data are representative of three independent experiments. […] Right panels: densitometric quantification of frataxin accumulation. Frataxin expression was normalized with tubulin and frataxin expression in non-treated cells (NT) set to one. Data represent the mean±1 S.E.M. from three different independent experiments performed for each inhibitor in the left panels.
Human embryonic kidney HEK-293 cells were cultured in Dulbecco's modified Eagle's medium (DMEM) supplemented with 10% fetal bovine serum (FBS). […]
Cell lysates (100 μg) were resolved by SDS-PAGE and analyzed by immunoblot with specific mAb anti-frataxin clone 1G2 and STR-23 (Immunological Sciences, Rome, Italy) mAb anti-tubulin (Sigma), mAb anti-actin (Sigma), mAb anti-phosphotyrosine (Millipore), pAb anti-phospho-Src (Life Technologies), mAb anti-GFP (Takara), secondary antibody horseradish peroxidase-conjugated goat anti-mouse (Pierce), secondary antibody horseradish peroxidase-conjugated mouse anti-rabbit (Pierce), secondary antibody horseradish peroxidase-conjugated goat anti-Fc anti-mouse (Thermo Scientific) using ECL system detection (GE Healthcare Europe GmbH, Milan, Italy). […]

[5] = system: FRDA patient-derived B cells (GM16214); assay: Frataxin accumulation in frataxin-deficient FRDA patient-derived B cells (western blot, densitometry); conditions: for frataxin accumulation in frataxin-deficient cells (mature frataxin): FRDA patient-derived B cells, 10 μM, time course 24 h to 72 h
Protocol: (§5) Left panels: mature frataxin (FXN) and tubulin expression (TUB) was analyzed by western blot. Data are representative of three independent experiments. Right panels: densitometric quantification of frataxin accumulation. Frataxin expression was normalized with tubulin and frataxin expression in non-treated cells (NT) set to one. Data represent the mean±1 S.E.M. from three different independent experiments performed for each inhibitor in the left panels.
(§6) Total cell extracts were prepared in ice-cold modified RIPA buffer (10 mM sodium phosphate pH 7.2, 150 mM NaCl, 1% Na deoxycholate, 0.1% SDS, 1% Nonidet P-40, 2 mM EDTA) or IP buffer (50 mM Tris-HCl, pH 7.5, 150 mM NaCl, 1% Nonidet P-40, 5 mM EDTA, 5 mM EGTA) supplemented with complete protease inhibitor cocktail (Roche Diagnostics, Milan, Italy), sodium orthovanadate 1 mM and NaF 25 mM to inhibit phosphatases.
(§7) Cell lysates (100 μg) were resolved by SDS-PAGE and analyzed by immunoblot with specific mAb anti-frataxin clone 1G2 and STR-23 (Immunological Sciences, Rome, Italy) mAb anti-tubulin (Sigma), mAb anti-actin (Sigma), mAb anti-phosphotyrosine (Millipore), pAb anti-phospho-Src (Life Technologies), mAb anti-GFP (Takara), secondary antibody horseradish peroxidase-conjugated goat anti-mouse (Pierce), secondary antibody horseradish peroxidase-conjugated mouse anti-rabbit (Pierce), secondary antibody horseradish peroxidase-conjugated goat anti-Fc anti-mouse (Thermo Scientific) using ECL system detection (GE Healthcare Europe GmbH, Milan, Italy).
(§8) For treatment longer than 24 h, inhibitors were added every 2 days, and each time lymphoblasts were centrifuged and resuspended at 400.000 cells/ml with the indicated concentration of inhibitor.
(§9) FRDA lymphoblasts were exposed to these inhibitors for different time periods.

[6] = system: FRDA patient-derived B cells (GM16214)
Protocol: as §5, §6, §7, §8, §9

[7] = system: nude mice; conditions: mouse, in vivo, po; cited from earlier work

Row | SMILES | frataxin precursor accumulation, single agent [1] | frataxin accumulation (frataxin normalized with tubulin, non-treated cells set to one) [2] | frataxin accumulation (frataxin normalized with tubulin, non-treated cells set to one) [3] | endogenous frataxin accumulation [4] | frataxin accumulation in frataxin-deficient cells (mature frataxin) [5] | tolerability in cells [6] | tolerability in cells ([5]; FRDA patient-derived B cells (GM16214)) | toxicity of regimen [7]
1 | COc1ccccc1C(=O)N/N=C(\C)c1ccc2c(c1)Nc1ccccc1S2 [F166] | accumulate frataxin precursor | – | – | – | – | – | – | –
2 | CC(C)(C)n1nc(-c2ccc(Cl)cc2)c2c(N)ncnc21 [PP2] | – | not the non-phosphorylable Y118F frataxin mutant | upregulate wild type frataxin | promote endogenous frataxin accumulation | promote frataxin accumulation | best tolerated | – | –
3 | CN(C)S(=O)(=O)c1ccc2c(c1)/C(=C/c1cc3c([nH]1)CCCC3)C(=O)N2 [SU6656] | – | not the non-phosphorylable Y118F frataxin mutant | upregulate wild type frataxin | promote endogenous frataxin accumulation | further accumulated within 72 h; also recorded: promote frataxin accumulation | best tolerated | – | –
4 | Cc1nc(Nc2ncc(C(=O)Nc3c(C)cccc3Cl)s2)cc(N2CCN(CCO)CC2)n1 [dasatinib] | – | – | – | – | – | – | best tolerated | no toxicity
